Test results as given in the Kinase Knowledgebase extract (Sharma et al. 2016).

Key:
MAPK14 (human) [1] = molecular target: MAPK14 (human) (UniProt Q16539); experiment: Inhibition of MAPK14 Kinase Activity by PHAS-I Assay; conditions: for inhibition: concentration not given here
MAPK14 (human) [2] = molecular target: MAPK14 (human) (UniProt Q16539); experiment: Inhibition of LPS Stimulated TNF Production by U937 Cells

Chain of MAPK14 (human) (Q16539 whole entry, looked up): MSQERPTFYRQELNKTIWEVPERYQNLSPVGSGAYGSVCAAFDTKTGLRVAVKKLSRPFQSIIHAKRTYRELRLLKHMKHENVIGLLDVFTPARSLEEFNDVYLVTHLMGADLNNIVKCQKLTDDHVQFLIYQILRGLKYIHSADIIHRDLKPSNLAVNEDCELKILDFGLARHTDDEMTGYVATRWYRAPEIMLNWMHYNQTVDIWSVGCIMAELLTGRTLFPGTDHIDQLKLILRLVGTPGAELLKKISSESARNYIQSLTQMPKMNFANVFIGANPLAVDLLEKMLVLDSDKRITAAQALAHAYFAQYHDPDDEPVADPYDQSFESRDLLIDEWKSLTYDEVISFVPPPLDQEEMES

SMILES	inhibition (MAPK14 (human) [2]; concentration not given here) [%]	inhibition (MAPK14 (human) [1]) [%]	other results
CC1(C)[C@H]2CC[C@@]1(CCS(=O)(=O)NCc1[nH]nc(-c3ccc(F)cc3)c1-c1ccncc1)C(=O)C2	11	–	IC50 (MAPK14 (human) [1]): < 100 nM
CC(C)c1ccc(NC(=O)NCCc2[nH]nc(-c3ccc(F)cc3)c2-c2ccncc2)cc1	5	50	–
CCNC(=O)NCCc1[nH]nc(-c2ccc(F)cc2)c1-c1ccncc1	65	67	–
N#Cc1ccc(C(=O)NCc2[nH]nc(-c3ccc(F)cc3)c2-c2ccncc2)cc1	40	53	–
COc1cc(NC(=O)NCCc2[nH]nc(-c3ccc(F)cc3)c2-c2ccncc2)cc(OC)c1OC	23	56	–
O=C(NCCc1[nH]nc(-c2ccc(F)cc2)c1-c1ccncc1)N1CCCC1	37	76	–
O=C(NCCCc1[nH]nc(-c2ccc(F)cc2)c1-c1ccncc1)[C@@H]1CCCN1	–	85	IC100 (MAPK14 (human) [2]): 0.36 µM
C[C@@H](NS(=O)(=O)c1ccccc1C(=O)O)c1[nH]nc(-c2ccc(F)cc2)c1-c1ccncc1	59	–	IC50 (MAPK14 (human) [1]): 580 nM
O=S(=O)(NCCc1[nH]nc(-c2ccc(F)cc2)c1-c1ccncc1)C(F)(F)F	66	82	–
O=C(NCCc1[nH]nc(-c2ccc(F)cc2)c1-c1ccncc1)c1ccccc1	29	74	–
C=Cc1ccc(S(=O)(=O)NCc2[nH]nc(-c3ccc(F)cc3)c2-c2ccncc2)cc1	9	67	–
O=C(NCc1[nH]nc(-c2ccc(F)cc2)c1-c1ccncc1)[C@@H]1CCCN1C(=O)C(F)(F)F	52	96	–
CCC(C(=O)NCc1[nH]nc(-c2ccc(F)cc2)c1-c1ccncc1)c1ccccc1 (stereo unspecified)	76	94	–
CC[C@H](C)NC(=O)Cn1nc(-c2ccc(F)cc2)c(-c2ccncc2)c1C	38	76	–
N#Cc1ccc(S(=O)(=O)NCCCc2[nH]nc(-c3ccc(F)cc3)c2-c2ccncc2)cc1	75	–	IC50 (MAPK14 (human) [1]): < 100 nM
COc1ccc(NC(=O)N2CCC(c3[nH]nc(-c4ccc(F)cc4)c3-c3ccncc3)CC2)c(OC)c1	–	–	IC50 (MAPK14 (human) [1]): < 100 nM; IC50 (MAPK14 (human) [2]): 440 nM
CNC(=O)CC[C@H](NC(=O)c1ccc(I)cc1)c1[nH]nc(-c2ccc(F)cc2)c1-c1ccncc1	8	–	IC50 (MAPK14 (human) [1]): 3280 nM
CCOC(=O)c1cccc(NC(=O)NCCc2[nH]nc(-c3ccc(F)cc3)c2-c2ccncc2)c1	2	82	–
O=C(NCCc1[nH]nc(-c2ccc(F)cc2)c1-c1ccncc1)c1cccnc1	23	58	–
COCC(=O)NCCc1[nH]nc(-c2ccc(F)cc2)c1-c1ccncc1	43	55	–
C[C@@H](NS(=O)(=O)c1cc(Cl)cc(Cl)c1O)c1[nH]nc(-c2ccc(F)cc2)c1-c1ccncc1	71	–	IC50 (MAPK14 (human) [1]): 1110 nM
O=S(=O)(NCCc1[nH]nc(-c2ccc(F)cc2)c1-c1ccncc1)c1ccccc1F	36	87	–
Cc1c(-c2ccncc2)c(-c2ccc(F)cc2)nn1CC(=O)N1CCCCC1C[C@@H]1CCCN1C (stereo partly specified)	24	42	–
CN(C)C(=O)NCc1[nH]nc(-c2ccc(F)cc2)c1-c1ccncc1	51	–	IC50 (MAPK14 (human) [1]): 110 nM
CCOC(=O)c1ccc(NC(=O)NCCc2[nH]nc(-c3ccc(F)cc3)c2-c2ccncc2)cc1	17	90	–

SMILES	inhibition (MAPK14 (human) [2]; concentration not given here) [%]	inhibition (MAPK14 (human) [1]) [%]	other results
O=C(NCCc1[nH]nc(-c2ccc(F)cc2)c1-c1ccncc1)Nc1ccc(OC(F)(F)F)cc1	4	48	–
O=C(NCc1[nH]nc(-c2ccc(F)cc2)c1-c1ccncc1)Nc1ccc(I)cc1	35	27	–
O=C(NCCc1[nH]nc(-c2ccc(F)cc2)c1-c1ccncc1)Nc1ccc(Oc2ccccc2)cc1	24	63	–
COC(=O)[C@H](CCSC)NC(=O)Cn1nc(-c2ccc(F)cc2)c(-c2ccncc2)c1C	36	58	–
CCOC(=O)[C@H](Cc1ccccc1)NC(=O)Cn1nc(-c2ccc(F)cc2)c(-c2ccncc2)c1C	1	77	–
CC(Oc1ccccc1)C(=O)NCCCc1[nH]nc(-c2ccc(F)cc2)c1-c1ccncc1 (stereo unspecified)	60	83	–
O=C(NCCc1[nH]nc(-c2ccc(F)cc2)c1-c1ccncc1)c1ccc(I)cc1	33	58	–
COc1ccc(S(=O)(=O)NCCc2[nH]nc(-c3ccc(F)cc3)c2-c2ccncc2)cc1	23	61	–
CNC(=O)CC[C@H](NC(C)=O)c1[nH]nc(-c2ccc(F)cc2)c1-c1ccncc1	46	–	IC50 (MAPK14 (human) [1]): 660 nM
COc1ccc(Cl)cc1S(=O)(=O)NCCCc1[nH]nc(-c2ccc(F)cc2)c1-c1ccncc1	64	–	IC50 (MAPK14 (human) [1]): < 100 nM
O=S(=O)(NCCc1[nH]nc(-c2ccc(F)cc2)c1-c1ccncc1)c1ccc(F)cc1	7	85	–
COC(=O)c1ccccc1NC(=O)NCCc1[nH]nc(-c2ccc(F)cc2)c1-c1ccncc1	31	76	–
CCN(CC)CCN(Cc1ccc(Cl)cc1)C(=O)Cn1nc(-c2ccc(F)cc2)c(-c2ccncc2)c1C	10	55	–
CCOC(=O)NC(=O)NCCc1[nH]nc(-c2ccc(F)cc2)c1-c1ccncc1	22	56	–
O=C(N[C@H](Cc1ccccc1)c1[nH]nc(-c2ccc(F)cc2)c1-c1ccncc1)c1ccccc1I	34	–	IC50 (MAPK14 (human) [1]): 540 nM
CC(NC(=O)NCCc1[nH]nc(-c2ccc(F)cc2)c1-c1ccncc1)c1cccc2ccccc12 (stereo unspecified)	2	85	–
O=S(=O)(NCCc1[nH]nc(-c2ccc(F)cc2)c1-c1ccncc1)c1ccc(F)cc1F	34	88	–
CCOC(=O)NC(=O)NCc1[nH]nc(-c2ccc(F)cc2)c1-c1ccncc1	24	51	–
Cc1c(-c2ccncc2)c(-c2ccc(F)cc2)nn1CC(=O)Nc1ccc(CCC(=O)c2cccnc2)cc1	15	94	–
Cc1ccc([C@@H](C)NC(=O)Cn2nc(-c3ccc(F)cc3)c(-c3ccncc3)c2C)cc1	45	81	–
O=C(NCCc1[nH]nc(-c2ccc(F)cc2)c1-c1ccncc1)Nc1ccccc1OC(F)(F)F	48	66	–
CN(C(=O)NCc1[nH]nc(-c2ccc(F)cc2)c1-c1ccncc1)c1ccccc1	18	–	IC50 (MAPK14 (human) [1]): 530 nM
Cc1c(-c2ccncc2)c(-c2ccc(F)cc2)nn1CC(=O)N(C)CCCC1c2ccccc2CCc2ccccc21	–	50	IC50 (MAPK14 (human) [2]): > 10000 nM
COC(=O)[C@@H]1CCCN1C(=O)Cn1nc(-c2ccc(F)cc2)c(-c2ccncc2)c1C	39	60	–
O=S(=O)(NCc1[nH]nc(-c2ccc(F)cc2)c1-c1ccncc1)c1cc(Cl)c(Cl)s1	–	78	IC50 (MAPK14 (human) [2]): 1810 nM

SMILES	inhibition (MAPK14 (human) [2]; concentration not given here) [%]	inhibition (MAPK14 (human) [1]) [%]	other results
O=C(NCCc1[nH]nc(-c2ccc(F)cc2)c1-c1ccncc1)N[C@@H]1C[C@@H]1c1ccccc1	25	81	–
CCN(CC)C(=O)Cn1nc(-c2ccc(F)cc2)c(-c2ccncc2)c1C	36	54	–
CS(=O)(=O)NCCc1[nH]nc(-c2ccc(F)cc2)c1-c1ccncc1	57	89	–
CC(=O)Oc1cccc(C(=O)NCc2[nH]nc(-c3ccc(F)cc3)c2-c2ccncc2)c1	52	98	–
O=S(=O)(NCc1[nH]nc(-c2ccc(F)cc2)c1-c1ccncc1)c1cc2nnoc2c2ccccc12	32	50	–
O=C(NCc1[nH]nc(-c2ccc(F)cc2)c1-c1ccncc1)C(F)(F)C(F)(F)C(F)(F)F	54	96	–
CCN(CC)C1CCN(C(=O)Cn2nc(-c3ccc(F)cc3)c(-c3ccncc3)c2C)C1 (stereo unspecified)	–	40	inhibition (MAPK14 (human) [2]): 59 µM
C=CCN(C(=O)Cn1nc(-c2ccc(F)cc2)c(-c2ccncc2)c1C)C1CCCCC1	6	50	–
Cc1c(-c2ccncc2)c(-c2ccc(F)cc2)nn1CC(=O)N1CCCCC1CCN1CCCCC1 (stereo unspecified)	13	26	–
Cc1ccc(S(=O)(=O)N[C@H](CCc2ccccc2)C(=O)NCc2[nH]nc(-c3ccc(F)cc3)c2-c2ccncc2)cc1	–	94	IC50 (MAPK14 (human) [2]): 10000 nM
O=C(NCCc1[nH]nc(-c2ccc(F)cc2)c1-c1ccncc1)c1ccno1	45	77	–
O=S(=O)(NCCCc1[nH]nc(-c2ccc(F)cc2)c1-c1ccncc1)c1ccc(F)cc1F	60	52	–
O=C(NCCc1[nH]nc(-c2ccc(F)cc2)c1-c1ccncc1)c1ccc(F)c(F)c1F	22	69	–
CC(C)(C)C(=O)NCCc1[nH]nc(-c2ccc(F)cc2)c1-c1ccncc1	66	69	–
O=C(NCCCc1[nH]nc(-c2ccc(F)cc2)c1-c1ccncc1)NCCN1CCOCC1	20	–	IC50 (MAPK14 (human) [1]): 55 nM
COc1cc(OC)c(NC(=O)NCc2[nH]nc(-c3ccc(F)cc3)c2-c2ccncc2)cc1O	14	4	–
O=C(NCc1[nH]nc(-c2ccc(F)cc2)c1-c1ccncc1)N1CCOCC1	–	–	IC50 (MAPK14 (human) [1]): 560 nM; IC50 (MAPK14 (human) [2]): > 1000 nM
CCOC(=O)CCNC(=O)NCCc1[nH]nc(-c2ccc(F)cc2)c1-c1ccncc1	34	69	–
CC1(C)[C@@H]2CC[C@]1(CCS(=O)(=O)NCc1[nH]nc(-c3ccc(F)cc3)c1-c1ccncc1)C(=O)C2	1	–	IC50 (MAPK14 (human) [1]): 45 nM
CC(=O)OCC(=O)NCCCc1[nH]nc(-c2ccc(F)cc2)c1-c1ccncc1	–	74	IC50 (MAPK14 (human) [2]): 680 nM
COc1ccc2[nH]c3c(c2c1)CCN(C(=O)Cn1nc(-c2ccc(F)cc2)c(-c2ccncc2)c1C)C3	10	39	–
Cc1c(-c2ccncc2)c(-c2ccc(F)cc2)nn1CC(=O)N(C)CCn1ccnc1	–	43	IC50 (MAPK14 (human) [2]): > 10000 nM
O=C(CCC1CC=CC1)NCc1[nH]nc(-c2ccc(F)cc2)c1-c1ccncc1	84	71	–
